From US9522907B2, “Anticancer agent and process for the preparation thereof” (COUNCIL OF SCIENTIFIC & INDUSTRIAL RESEARCH, priority 2014, dated 2016)

Experiments:
[1] = tested on: MALME-3M; test: NCI in vitro cytotoxicity, MALME-3M; settings: Homo sapiens
Text: (§1) For these compounds results are expressed as growth inhibition (GI50) values as per NCI protocol.

[2] = tested on: SF-295; test: NCI in vitro cytotoxicity, SF-295; settings: Homo sapiens
Text: as §1

[3] = tested on: BT-549 (breast cancer cell line); test: NCI in vitro cytotoxicity, BT-549; settings: Homo sapiens
Text: as §1

[4] = tested on: U251; test: NCI in vitro cytotoxicity, U251; settings: Homo sapiens, U-251
Text: as §1

[5] = tested on: NCI-H522; test: NCI in vitro cytotoxicity, NCI-H522; settings: Homo sapiens
Text: as §1

[6] = tested on: NCI/ADR-RES; test: NCI in vitro cytotoxicity, NCI/ADR-RES; settings: Homo sapiens
Text: as §1

[7] = tested on: RXF 393; test: NCI in vitro cytotoxicity, RXF 393; settings: Homo sapiens
Text: as §1

[8] = tested on: UO-31; test: NCI in vitro cytotoxicity, UO-31; settings: Homo sapiens
Text: as §1

[9] = tested on: HCC-2998; test: NCI in vitro cytotoxicity, HCC-2998; settings: Homo sapiens
Text: as §1

[10] = tested on: SNB-75; test: NCI in vitro cytotoxicity, SNB-75; settings: Homo sapiens
Text: as §1

[11] = tested on: TK-10; test: NCI in vitro cytotoxicity, TK-10; settings: Homo sapiens
Text: as §1

[12] = tested on: OVCAR-5; test: NCI in vitro cytotoxicity, OVCAR-5; settings: Homo sapiens
Text: as §1

[13] = tested on: SF-539; test: NCI in vitro cytotoxicity, SF-539; settings: Homo sapiens
Text: as §1

[14] = tested on: MDA-MB-435; test: NCI in vitro cytotoxicity, MDA-MB-435; settings: Homo sapiens
Text: as §1

[15] = tested on: NCI-H23; test: NCI in vitro cytotoxicity, NCI-H23; settings: Homo sapiens
Text: as §1

[16] = tested on: ACHN; test: NCI in vitro cytotoxicity, ACHN; settings: Homo sapiens
Text: as §1

[17] = tested on: SK-MEL-2; test: NCI in vitro cytotoxicity, SK-MEL-2; settings: Homo sapiens
Text: as §1

[18] = tested on: T-47D; test: NCI in vitro cytotoxicity, T-47D; settings: Homo sapiens, T47D
Text: as §1

[19] = tested on: MCF-7; test: NCI in vitro cytotoxicity, MCF-7; settings: Homo sapiens, MCF7
Text: as §1

[20] = tested on: MDA-MB-231/ATCC; test: NCI in vitro cytotoxicity, MDA-MB-231/ATCC; settings: Homo sapiens
Text: as §1

[21] = tested on: SNB-19; test: NCI in vitro cytotoxicity, SNB-19; settings: Homo sapiens
Text: as §1

[22] = tested on: K-562; test: NCI in vitro cytotoxicity, K-562; settings: Homo sapiens, K562
Text: as §1

[23] = tested on: SK-MEL-5; test: NCI in vitro cytotoxicity, SK-MEL-5; settings: Homo sapiens
Text: as §1

[24] = tested on: RPMI-8226; test: NCI in vitro cytotoxicity, RPMI-8226; settings: Homo sapiens
Text: as §1

[25] = tested on: NCI-H460; test: NCI in vitro cytotoxicity, NCI-H460; settings: Homo sapiens
Text: as §1

[26] = tested on: NCI-H322M; test: NCI in vitro cytotoxicity, NCI-H322M; settings: Homo sapiens
Text: as §1

[27] = tested on: 786-0; test: NCI in vitro cytotoxicity, 786-0; settings: Homo sapiens
Text: as §1

[28] = tested on: COLO 205; test: NCI in vitro cytotoxicity, COLO 205; settings: Homo sapiens
Text: as §1

| Structure (SMILES) | GI50 [1] | GI50 [2] | GI50 [4] | GI50 [5] | GI50 [6] | GI50 [7] | GI50 [8] | GI50 [9] | GI50 [10] | GI50 [11] | GI50 [12] | GI50 [13] | GI50 [14] | GI50 [15] | GI50 [16] | GI50 [17] | GI50 [18] | GI50 [19] | GI50 [20] | GI50 [21] | also measured |
| --- | --- | --- | --- | --- | --- | --- | --- | --- | --- | --- | --- | --- | --- | --- | --- | --- | --- | --- | --- | --- | --- |
| COc1ccc2[nH]c(-c3ccc(-c4noc(-c5cc(OC)c(OC)c(OC)c5)n4)cc3)nc2c1 [5i, 3-(4-(5-Methoxy-1H-benzo[d]imidazol-2-yl)phenyl)-5-(3,4,5-trimethoxyphenyl)-1,2,4-oxadiazole] | 1.67 µM | 15 µM | 1.68 µM | 6.89 µM | 3.32 µM | 5.24 µM | 1.89 µM | 35.5 µM | 12.5 µM | 4.62 µM | 16.7 µM | 2 µM | 4.27 µM | 4.1 µM | 28.2 µM | 18.9 µM | 14.7 µM | 1.08 µM | 2.65 µM | 1.27 µM | GI50 [3]: 0.52 µM; GI50 [22]: 1.2 µM; GI50 [23]: 3.25 µM; GI50 [24]: 6.02 µM; GI50 [25]: 4.6 µM |
| COc1cc(-c2nc(-c3ccc(-c4nc5cc(F)ccc5[nH]4)cc3)no2)cc(OC)c1OC [2i, 3-(4-(5-Fluoro-1H-benzo[d]imidazol-2-yl)phenyl)-5-(3,4,5-trimethoxyphenyl)-1,2,4-oxadiazole] | 2.32 µM | 2.31 µM | 3.03 µM | 3.04 µM | 2.49 µM | 1.9 µM | 2.51 µM | 6.13 µM | 7.74 µM | 8.27 µM | 5.59 µM | 3.37 µM | 2.73 µM | 2.5 µM | 3.72 µM | 4.21 µM | 2.72 µM | 2.88 µM | 2.39 µM | 5.62 µM | GI50 [26]: 1.3 µM; GI50 [27]: 3.61 µM; GI50 [23]: 2.22 µM; GI50 [24]: 1.94 µM; GI50 [28]: 4.77 µM; GI50 [25]: 2.97 µM |
